Reference: ChEMBL document CHEMBL4251653, “In vivo potent BM635 analogue with improved drug-like properties” (Eur J Med Chem, 2018)
Converted amounts (≈) assume the structure as drawn.

What was measured:
[1] = test system: Mycobacterium tuberculosis; assay: microbe, parasite or virus in culture; conditions: 144 h
Description: Antitubercular activity against Mycobacterium tuberculosis after 6 days by resazurin-based fluorescence assay

[2] = test system: Mycobacterium tuberculosis; assay: microbe, parasite or virus in culture; conditions: H37Rv, THP-1, 96 h
Description: Antitubercular activity against Mycobacterium tuberculosis H37Rv infected in human THP1 macrophages incubated for 4 days by luciferase reporter gene assay

[3] = Cytotoxicity against human HepG2 cells incubated for 48 hrs by Cell-titer Glo assay; format: cell-based; conditions: read-out: TC50
in vitro = conditions: human, HepG2 cells
Description: Selectivity index, ratio of TC50 for human HepG2 cells to MIC for Mycobacterium tuberculosis

HepG2 [4] = assay: Cytotoxicity against human HepG2 cells assessed as compound concentration causing changes in mitochondrial potential by Cell Health assay; format: cell-based
HepG2 [5] = assay: Cytotoxicity against human HepG2 cells assessed as compound concentration causing changes in membrane permeability by Cell Health assay; format: cell-based
HepG2 [6] = assay: Cytotoxicity against human HepG2 cells assessed as compound concentration causing changes in nuclear morphology by Cell Health assay; format: cell-based
[7] = Lipophilicity, log D of the compound at pH 7.4 by UV-HPLC method; format: physicochemical; conditions: buffer, read-out: logD
[8] = target: Voltage-gated inwardly rectifying potassium channel KCNH2 (Homo sapiens, UniProt Q12809); assay: Inhibition of human ERG by [3H]dofetilide binding displacement assay
Sequence of Voltage-gated inwardly rectifying potassium channel KCNH2 (Q12809 whole entry): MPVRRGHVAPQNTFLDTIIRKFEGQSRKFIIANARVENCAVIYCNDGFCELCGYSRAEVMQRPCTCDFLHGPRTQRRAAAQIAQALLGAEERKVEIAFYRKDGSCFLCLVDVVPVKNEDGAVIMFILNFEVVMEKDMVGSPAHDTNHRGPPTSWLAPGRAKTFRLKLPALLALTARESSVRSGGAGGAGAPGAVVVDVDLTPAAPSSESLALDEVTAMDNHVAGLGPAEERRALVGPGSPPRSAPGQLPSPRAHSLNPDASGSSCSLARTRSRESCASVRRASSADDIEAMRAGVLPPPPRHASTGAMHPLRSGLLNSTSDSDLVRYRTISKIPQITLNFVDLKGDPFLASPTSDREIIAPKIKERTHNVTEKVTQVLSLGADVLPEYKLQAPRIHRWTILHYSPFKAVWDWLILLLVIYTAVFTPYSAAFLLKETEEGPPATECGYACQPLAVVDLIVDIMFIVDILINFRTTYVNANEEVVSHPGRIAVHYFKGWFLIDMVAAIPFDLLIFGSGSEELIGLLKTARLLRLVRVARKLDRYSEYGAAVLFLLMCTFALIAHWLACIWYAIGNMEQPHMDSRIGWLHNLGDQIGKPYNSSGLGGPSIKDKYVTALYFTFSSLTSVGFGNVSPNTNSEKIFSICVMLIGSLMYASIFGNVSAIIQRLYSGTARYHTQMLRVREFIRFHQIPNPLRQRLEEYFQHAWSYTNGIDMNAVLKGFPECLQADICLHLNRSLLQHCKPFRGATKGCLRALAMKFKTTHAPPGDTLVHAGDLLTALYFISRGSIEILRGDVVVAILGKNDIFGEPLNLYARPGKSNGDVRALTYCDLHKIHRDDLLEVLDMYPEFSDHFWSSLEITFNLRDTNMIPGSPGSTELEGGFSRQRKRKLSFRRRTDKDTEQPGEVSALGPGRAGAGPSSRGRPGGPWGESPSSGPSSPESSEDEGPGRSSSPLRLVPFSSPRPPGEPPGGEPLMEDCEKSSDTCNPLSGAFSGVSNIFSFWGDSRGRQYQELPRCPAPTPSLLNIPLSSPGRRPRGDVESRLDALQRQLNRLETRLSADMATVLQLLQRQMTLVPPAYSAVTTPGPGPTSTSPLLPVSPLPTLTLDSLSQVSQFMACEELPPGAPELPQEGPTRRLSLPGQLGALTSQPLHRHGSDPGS

[9] = Kinetic solubility in pH 7.4 phosphate buffered saline incubated for 1 hr by chemiluminescent nitrogen detection method; format: physicochemical; conditions: read-out: Kinetic_solubility
Albumin = Albumin (Homo sapiens, UniProt P02768); assay: Binding affinity to human serum albumin; format: ADME; conditions: isolated protein
Sequence of Albumin (P02768 whole entry): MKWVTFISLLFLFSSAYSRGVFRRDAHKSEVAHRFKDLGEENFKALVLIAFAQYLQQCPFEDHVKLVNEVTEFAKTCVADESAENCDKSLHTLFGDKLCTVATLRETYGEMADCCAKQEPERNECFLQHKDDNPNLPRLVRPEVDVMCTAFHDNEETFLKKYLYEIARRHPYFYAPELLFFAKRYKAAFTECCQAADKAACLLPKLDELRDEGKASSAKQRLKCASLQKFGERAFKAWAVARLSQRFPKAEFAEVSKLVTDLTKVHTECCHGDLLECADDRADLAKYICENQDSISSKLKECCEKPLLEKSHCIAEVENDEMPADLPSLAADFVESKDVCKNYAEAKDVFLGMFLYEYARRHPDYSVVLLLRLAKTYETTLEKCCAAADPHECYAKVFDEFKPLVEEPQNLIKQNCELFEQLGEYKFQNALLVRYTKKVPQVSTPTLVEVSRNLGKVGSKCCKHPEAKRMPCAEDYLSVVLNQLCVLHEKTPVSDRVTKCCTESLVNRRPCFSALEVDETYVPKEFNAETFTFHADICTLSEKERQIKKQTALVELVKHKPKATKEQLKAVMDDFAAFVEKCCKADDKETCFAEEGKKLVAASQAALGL

[10] = Permeability of the compound by artificial membrane permeability assay; format: ADME; conditions: PAMPA; read-out: permeability
[11] = Solubility of the compound in FaSSIF at pH 6.5 incubated for 4 hrs by UPLC-MS method; format: physicochemical

Cc1c(CN2CCOCC2)cc(-c2ccc(Cl)cc2)n1C(C)C
MIC [1]: 2.5 µM (≈ 0.832 µg/mL)

Cc1c(CN2CCOCC2)cc(-c2ccc(C(C)C)cc2)n1C1CCN(C)CC1
IC50 [2]: > 10 µM | CC50 at 48 h [3]: 20 µM | MIC [1]: > 5 µM

Cc1c(CN2CCOCC2)cc(-c2ccc(C(F)(F)F)cc2)n1C1CCCCC1
CC50 at 48 h [3]: > 100 µM | MIC [1]: 1.25 µM (≈ 0.508 µg/mL) | selectivity ratio (in vitro): > 167

COCCn1c(-c2ccc(C(C)C)cc2)cc(CN2CCOCC2)c1C
IC50 [2]: 1.32 µM | CC50 at 48 h [3]: 50.1 µM | MIC [1]: 1.3 µM (≈ 0.463 µg/mL) | selectivity ratio (in vitro): 39

Cc1c(CN2CCOCC2)cc(-c2ccc(Cl)nc2)n1-c1ccc(F)cc1
IC50 [2]: > 10 µM | CC50 at 48 h [3]: 80 µM | MIC [1]: > 5 µM

Cc1c(CN2CCOCC2)cc(-c2ccc(C(C)C)cc2)n1-c1cccc(C(=O)O)c1
CC50 at 48 h [3]: > 100 µM | MIC [1]: 40 µM (≈ 16.7 µg/mL)

Cc1c(CN2CCOCC2)cc(-c2ccc(C(C)C)cc2)n1C1COC1
IC50 [2]: 2.5 µM | CC50 at 48 h [3]: 80 µM | Activity (HepG2 [4]): 100 µM | MIC [1]: 2.5 µM (≈ 0.886 µg/mL) | Activity (HepG2 [5]): 80 µM | Activity (HepG2 [6]): 80 µM

Cc1c(CN2CCOCC2)cc(-c2ccc(C(C)C)cc2)n1-c1ccc(F)cn1
logD [7]: 6.85 | IC50 [8]: 8 µM | solubility kinetic at 1 h [9]: 276 µM (≈ 109 µg/mL) | IC50 [2]: 0.6 µM | CC50 at 48 h [3]: 20 µM | Activity (HepG2 [4]): 80 µM | MIC [1]: 0.6 µM (≈ 0.236 µg/mL) | Activity (Albumin): 94.13% | Papp [10]: 64 ×10⁻⁶ cm/s | Activity (HepG2 [5]): 63 µM | Activity (HepG2 [6]): 50 µM | selectivity ratio (in vitro): 33

Cc1c(CN2CCOCC2)cc(-c2ccc(C(C)C)cc2)n1-c1ncccn1
CC50 at 48 h [3]: > 100 µM | MIC [1]: 40 µM (≈ 15.1 µg/mL)

Cc1c(CN2CCOCC2)cc(-c2ccc(C(C)C)cc2)n1CCC(=O)O
CC50 at 48 h [3]: > 100 µM | MIC [1]: > 40 µM

Cc1c(CN2CCOCC2)cc(-c2ccc(C(C)C)cc2)n1C1CCC1
logD [7]: 8.13 | IC50 [8]: 8 µM | solubility kinetic at 1 h [9]: 71 µM (≈ 25 µg/mL) | IC50 [2]: 0.08 µM | CC50 at 48 h [3]: 20 µM | Activity (HepG2 [4]): 32 µM | MIC [1]: 0.08 µM (≈ 0.0282 µg/mL) | Activity (Albumin): 98.12% | Papp [10]: 55 ×10⁻⁶ cm/s | Activity (HepG2 [5]): 25 µM | Activity (HepG2 [6]): 25 µM | selectivity ratio (in vitro): 250

Cc1c(CN2CCOCC2)cc(-c2ccc(C(C)C)cc2)n1C1CC1
logD [7]: 7.21 | IC50 [8]: 8 µM | solubility at 4 h [11]: 511 µg/mL (≈ 1510 µM) | solubility kinetic at 1 h [9]: 181 µM (≈ 61.3 µg/mL) | IC50 [2]: 0.2 µM | CC50 at 48 h [3]: 20 µM | Activity (HepG2 [4]): 50 µM | MIC [1]: 0.3 µM (≈ 0.102 µg/mL) | Activity (Albumin): 96.49% | Activity (HepG2 [5]): 40 µM | Activity (HepG2 [6]): 40 µM | selectivity ratio (in vitro): 67

Cc1c(CN2CCOCC2)cc(-c2ccc(C(C)C)cc2)n1-c1ccc(N(C)C)cc1
IC50 [2]: 2.5 µM | CC50 at 48 h [3]: 16 µM | MIC [1]: 1.25 µM (≈ 0.522 µg/mL) | selectivity ratio (in vitro): 13

Cc1c(CN2CCOCC2)cc(-c2ccc(C(C)C)cc2)n1[C@@H]1CCCN(C)C1
CC50 at 48 h [3]: 25 µM | MIC [1]: > 40 µM

Cc1c(CN2CCOCC2)cc(-c2ccc(C(C)C)cc2)n1CC1CCOCC1
IC50 [2]: 5.28 µM | CC50 at 48 h [3]: > 100 µM | MIC [1]: > 5 µM

Cc1c(CN2CCOCC2)cc(-c2ccc(C(F)(F)F)cc2)n1-c1ccc(F)cc1
logD [7]: 7.67 | IC50 [8]: > 50 µM | solubility kinetic at 1 h [9]: < 1 µM | CC50 at 48 h [3]: > 100 µM | MIC [1]: 0.6 µM (≈ 0.251 µg/mL) | Activity (Albumin): 98.33% | Papp [10]: 15 ×10⁻⁶ cm/s | selectivity ratio (in vitro): 167

Cc1c(CN2CCOCC2)cc(C2CCCCC2)n1-c1ccc(F)cc1
IC50 [2]: > 10 µM | CC50 at 48 h [3]: 50 µM | MIC [1]: > 5 µM

Cc1c(CN2CCOCC2)cc(-c2ccc(C(F)(F)F)cc2)n1C(C)C
CC50 at 48 h [3]: 20 µM | MIC [1]: 2.5 µM (≈ 0.916 µg/mL)

Cc1c(CN2CCOCC2)cc(-c2ccc(C(C)C)cc2)n1C1CCN(C(=O)OC(C)(C)C)CC1
IC50 [2]: > 10 µM | MIC [1]: > 5 µM

Cc1c(CN2CCOCC2)cc(-c2ccc(C(C)C)cc2)n1C1CCCN(C(=O)OC(C)(C)C)C1 (single isomer, unassigned)
CC50 at 48 h [3]: 16 µM | MIC [1]: 30 µM (≈ 14.5 µg/mL)

NNC(=O)c1ccncc1 [ISONIAZID]
MIC [1]: 1.8 µM (≈ 0.247 µg/mL)
